Results reported in US20240415819A1, “MACROCYCLIC COMPOUNDS AS PROTEASOME SUBUNIT BETA TYPE-5 INHIBITORS” (Lead Discovery Center GmbH, priority 2021, published 2024).

Assays:
[1] = target: T1, β5 subunit of the human constitutive proteasome (CPS) (Homo sapiens, UniProt P28074); experiment: β5 inhibition assay, human constitutive proteasome (Suc-LLVY-AMC); type: biochemical; conditions: IC50 class, Suc-LLVY-AMC substrate
T1 construct: purchased Boston Biochem E-360
Description: The enzymatic activity of the β5 subunit of the human constitutive proteasome (CPS) is analyzed. In another assay, which differs from the assay of the human constitutive proteasome only in using the human immunoproteasome (IPS) the enzymatic activity of the β5 subunit of the human immunoproteasome (IPS) is analyzed. […] Inhibition is indicated as IC50 [nM] (“-”=not measured).

[2] = target: T2, β5 subunit of the human immunoproteasome (IPS) (Homo sapiens, UniProt P28062); experiment: β5 inhibition assay, human immunoproteasome (Suc-LLVY-AMC); type: biochemical; conditions: IC50 class, Suc-LLVY-AMC substrate
T2 construct: purchased Boston Biochem E-370
In short: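 β5 activity is read as liberated AMC fluorescence (355/460 nm) after 4 h dark reaction at RT with 22.6 μM Suc-LLVY-AMC, stopped by 1 μM bortezomib. Beforehand, 1 nM human IPS and compound sat 10 min at RT in HEPES pH 7.5 buffer containing NaCl, 0.02% SDS and DTT.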

[3] = system: A549 (human lung carcinoma cell line); experiment: Glo assay of A549 cells (Table 3; ProteasomeGlo plating scheme); type: cell-based; conditions: Homo sapiens; A549 cells; read-out: PGLo A549
In short: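 After acoustic compound transfer, plates incubate 105 min (37° C., 5% CO2). Proteasome-Glo reagent containing Suc-LLVY-Glo substrate is added, plates are shaken, then luminescence is measured after 10-15 min to derive IC50 [nM]. Staurosporine and DMSO serve as controls.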

[4] = system: Hs 746T (human gastric carcinoma cell line); experiment: 48 hr CTG viability assay, Hs 746T; type: cell-based; conditions: Hs746T, 48 hr CTG, read-out: Hs 746T IC50
In short: (§1)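 Growth inhibition by compound over 48 h; IC50 (nM) derived from duplicate CellTiter-Glo luminescence readings across 0.0015–10 uM.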

[5] = system: MM1 S (B lymphoblast cell line); experiment: 48 hr CTG viability assay, MM1S; type: cell-based; conditions: Homo sapiens, 48 hr CTG, read-out: MM1S IC50
In short: as §1

[6] = system: RPMI 8226 (B lymphocyte cell line, multiple myeloma); experiment: 48 hr CTG viability assay, RPMI 8226; type: cell-based; conditions: Homo sapiens, RPMI-8226; 48 hr CTG; read-out: RPMI-8226 IC50
In short: as §1

SMILES | IC50 [1] [nM] | IC50 [2] [nM] | IC50 [3] [nM] | IC50 [4] [nM] | IC50 [5] [nM] | IC50 [6] [nM]
COc1ccccc1OCCC(=O)N[C@H]1CC(=O)N2CCCC(CCOc3ccc(C)c(c3)CNC(=O)[C@H](CCc3ccccc3)NC1=O)C2 (stereo partly drawn) [Compound 588, 3-(2-methoxyphenoxy)-N-((9S,12S)-5^4-methyl-8,11,14-trioxo-9-phenethyl-4-oxa-7,10-diaza-1(3,1)-piperidina-5(1,3)-benzenacyclotetradecaphane-12-yl)propanamide] | < 100 | < 100 | < 100 | < 100 | < 100 | < 100
Cc1ccc2cc1CNC(=O)[C@H](CCc1ccccc1)NC(=O)[C@@H](NC(=O)CCN1CC3(COC3)C1)CC(=O)N1CCCC(CCO2)C1 (stereo partly drawn) [Compound 660, N-((9S,12S)-5^4-methyl-8,11,14-trioxo-9-phenethyl-4-oxa-7,10-diaza-1(3,1)-piperidina-5(1,3)-benzenacyclotetradecaphane-12-yl)-3-(2-oxa-6-azaspiro[3.3]heptan-6-yl)propanamide] | < 100 | < 100 | < 100 | < 100 | < 100 | < 100
Cc1ccc2cc1CNC(=O)[C@H](CCc1ccccc1)NC(=O)[C@@H](NC(=O)N1CCCc3cc(N)ccc31)CC(=O)N1CCCC(CCO2)C1 (stereo partly drawn) [Compound 667, 6-amino-N-((9S,12S)-5^4-methyl-8,11,14-trioxo-9-phenethyl-4-oxa-7,10-diaza-1(3,1)-piperidina-5(1,3)-benzenacyclotetradecaphane-12-yl)-3,4-dihydroquinoline-1(2H)-carboxamide] | < 100 | < 100 | < 100 | < 100 | < 100 | < 100
Cc1ccc2cc1CNC(=O)[C@H](CCc1ccccc1)NC(=O)[C@@H](NC(=O)NC1CCCCC1)CC(=O)N1CCCC(CCO2)C1 (stereo partly drawn) [Compound 593, 1-cyclohexyl-3-((9S,12S)-5^4-methyl-8,11,14-trioxo-9-phenethyl-4-oxa-7,10-diaza-1(3,1)-piperidina-5(1,3)-benzenacyclotetradecaphane-12-yl)urea] | < 100 | < 100 | < 100 | < 100 | < 100 | < 100
Cc1ccc2cc1CNC(=O)[C@H](CCc1ccccc1)NC(=O)[C@@H](NS(=O)(=O)CC(F)(F)F)CC(=O)N1CCCC(CCO2)C1 (stereo partly drawn) [Compound 601, 2,2,2-trifluoro-N-((9S,12S)-5^4-methyl-8,11,14-trioxo-9-phenethyl-4-oxa-7,10-diaza-1(3,1)-piperidina-5(1,3)-benzenacyclotetradecaphane-12-yl)ethane-1-sulfonamide] | < 100 | < 100 | < 100 | < 100 | < 100 | < 100
Cc1ccc2cc1CNC(=O)[C@H](CCc1ccccc1)NC(=O)[C@@H](NC(=O)CCOCC1CC1)CC(=O)N1CCCC(CCO2)C1 (stereo partly drawn) [Compound 594, 3-(cyclopropylmethoxy)-N-((9S,12S)-5^4-methyl-8,11,14-trioxo-9-phenethyl-4-oxa-7,10-diaza-1(3,1)-piperidina-5(1,3)-benzenacyclotetradecaphane-12-yl)propanamide] | < 100 | < 100 | < 100 | < 100 | < 100 | < 100
Cc1ccc2cc1CNC(=O)[C@H](CCc1ccccc1)NC(=O)[C@@H](NC(=O)CCN1CCC3(CCOCC3)CC1)CC(=O)N1CCCC(CCO2)C1 (stereo partly drawn) [Compound 611, N-((9S,12S)-5^4-methyl-8,11,14-trioxo-9-phenethyl-4-oxa-7,10-diaza-1(3,1)-piperidina-5(1,3)-benzenacyclotetradecaphane-12-yl)-3-(3-oxa-9-azaspiro[5.5]undecan-9-yl)propanamide] | < 100 | < 100 | < 100 | < 100 | < 100 | < 100
Cc1ccc2cc1CNC(=O)[C@H](CCc1ccccc1)NC(=O)[C@@H](NC(=O)CCNCC1CC1)CC(=O)N1CCCC(CCO2)C1 (stereo partly drawn) [Compound 694, 3-((cyclopropylmethyl)amino)-N-((9S,12S)-5^4-methyl-8,11,14-trioxo-9-phenethyl-4-oxa-7,10-diaza-1(3,1)-piperidina-5(1,3)-benzenacyclotetradecaphane-12-yl)propanamide] | < 100 | < 100 | < 100 | < 100 | < 100 | < 100
Cc1ccc2cc1CNC(=O)[C@H](CCc1ccccc1)NC(=O)[C@@H](NC(=O)CCOCCC1CCC1)CC(=O)N1CCCC(CCO2)C1 (stereo partly drawn) [Compound 627, 3-(2-cyclobutylethoxy)-N-((9S,12S)-5^4-methyl-8,11,14-trioxo-9-phenethyl-4-oxa-7,10-diaza-1(3,1)-piperidina-5(1,3)-benzenacyclotetradecaphane-12-yl)propanamide] | < 100 | < 100 | < 100 | < 100 | < 100 | < 100
Cc1ccc2cc1CNC(=O)[C@H](CCc1ccccc1)NC(=O)[C@@H](NC(=O)CCOC1CCC1)CC(=O)N1CCCC(CCO2)C1 (stereo partly drawn) [Compound 595, 3-cyclobutoxy-N-((9S,12S)-5^4-methyl-8,11,14-trioxo-9-phenethyl-4-oxa-7,10-diaza-1(3,1)-piperidina-5(1,3)-benzenacyclotetradecaphane-12-yl)propanamide] | < 100 | < 100 | < 100 | < 100 | < 100 | < 100

Results, then the compound that gave them:

IC50 [1] [nM] | IC50 [2] [nM] | IC50 [3] [nM] | IC50 [4] [nM] | IC50 [5] [nM] | IC50 [6] [nM] | SMILES
< 100 | < 100 | < 100 | < 100 | < 100 | < 100 | Cc1ccc2cc1CNC(=O)[C@H](CCc1ccc(N)cc1)NC(=O)[C@@H](NC(=O)Cc1cn3ccsc3n1)CC(=O)N1CCCC(CCO2)C1 (stereo partly drawn) [Compound 708, N-((9S,12S)-9-(4-aminophenethyl)-5^4-methyl-8,11,14-trioxo-4-oxa-7,10-diaza-1(3,1)-piperidina-5(1,3)-benzenacyclotetradecaphane-12-yl)-2-(imidazo[2,1-b]thiazol-6-yl)acetamide]
< 100 | < 100 | < 100 | < 100 | < 100 | < 100 | Cc1ccc2cc1CNC(=O)[C@H](CCc1ccccc1)NC(=O)[C@@H](NC(=O)CCNCc1ccc(OCC3CCCCC3)cc1)CC(=O)N1CCCC(CCO2)C1 (stereo partly drawn) [Compound 706, 3-((4-(cyclohexylmethoxy)benzyl)amino)-N-((9S,12S)-5^4-methyl-8,11,14-trioxo-9-phenethyl-4-oxa-7,10-diaza-1(3,1)-piperidina-5(1,3)-benzenacyclotetradecaphane-12-yl)propanamide]
< 100 | < 100 | < 100 | < 100 | < 100 | < 100 | Cc1ccc2cc1CNC(=O)[C@H](CCc1ccccc1)NC(=O)[C@@H](NC(=O)CCN[C@@H]1C[C@H]3CC[C@@H]1C3)CC(=O)N1CCCC(CCO2)C1 [Compound 695, 3-(((1R,2R,4S)-bicyclo[2.2.1]heptan-2-yl)amino)-N-((9S,12S)-5^4-methyl-8,11,14-trioxo-9-phenethyl-4-oxa-7,10-diaza-1(3,1)-piperidina-5(1,3)-benzenacyclotetradecaphane-12-yl)propanamide]
< 100 | < 100 | < 100 | < 100 | < 100 | < 100 | Cc1ccc2cc1CNC(=O)[C@H](CCc1ccncc1)NC(=O)[C@@H](NC(=O)Cc1ccccc1F)CC(=O)N1CCCC(CCO2)C1 (stereo partly drawn) [Compound 737, 2-(2-fluorophenyl)-N-((9S,12S)-5^4-methyl-8,11,14-trioxo-9-(2-(pyridin-4-yl)ethyl)-4-oxa-7,10-diaza-1(3,1)-piperidina-5(1,3)-benzenacyclotetradecaphane-12-yl)acetamide]
1000 to 5000 | 100 to 500 | 1000 to 5000 | > 5000 | 1000 to 5000 | 1000 to 5000 | Cc1ccc2cc1CNC(=O)[C@H](CCc1ccccc1)NC(=O)[C@@H](N1CCCCC1=O)CC(=O)N1CCCC(CCO2)C1 (stereo partly drawn) [Compound 734, (9S,12S)-5^4-methyl-12-(2-oxopiperidin-1-yl)-9-phenethyl-4-oxa-7,10-diaza-1(3,1)-piperidina-5(1,3)-benzenacyclotetradecaphane-8,11,14-trione]
